{
  "source": "paper PMC5218480",
  "about": "(PLoS ONE, 2017)",
  "tested_on": "MV-4-11 cells",
  "assay": "Gene expression microarray analysis (Affymetrix PrimeView) and GSEA",
  "type": "cell-based, human",
  "parameters": "RFU PODN (11730768_x_at) / Fold change /veh PODN (11730768_x_at) / RFU LINC00158 (11744669_a_at) / Fold change /veh LINC00158 (11744669_a_at) / RFU DUSP10 (11751237_a_at) / Fold change /veh DUSP10 (11751237_a_at) / RFU ID3 (11757404_x_at) / Fold change /veh ID3 (11757404_x_at) / RFU PLEKHG5 (11737974_s_at) / Fold change /veh PLEKHG5 (11737974_s_at) / RFU LRRC4B (11730491_at) / Fold change /veh LRRC4B (11730491_at) / RFU GIMAP4 (11747438_a_at) / Fold change /veh GIMAP4 (11747438_a_at) / RFU KRT8 (11758183_x_at) / Fold change /veh KRT8 (11758183_x_at) / RFU CNN1 (11734310_a_at) / Fold change /veh CNN1 (11734310_a_at) / RFU VPS37D (11726825_at) / Fold change /veh VPS37D (11726825_at) / RFU C10orf10 (11716522_x_at) / Fold change /veh C10orf10 (11716522_x_at) / RFU KIR2DL2 /// KIR2DL4 /// KIR2DL5A /// KIR2DL5B /// KIR2DS1 /// KIR2DS2 /// KIR2DS3 /// KIR2DS4 /// KIR3DL3 /// KIR3DL3 /// KIR3DS1 (11738374_at) / Fold change /veh KIR2DL2 /// KIR2DL4 /// KIR2DL5A /// KIR2DL5B /// KIR2DS1 /// KIR2DS2 /// KIR2DS3 /// KIR2DS4 /// KIR3DL3 /// KIR3DL3 /// KIR3DS1 (11738374_at) / RFU C1QL1 (11718748_at) / Fold change /veh C1QL1 (11718748_at) / RFU TMPRSS4 (11747572_a_at) / Fold change /veh TMPRSS4 (11747572_a_at) / RFU HAMP (11756126_x_at) / Fold change /veh HAMP (11756126_x_at) / RFU RNFT2 (11725882_a_at) / Fold change /veh RNFT2 (11725882_a_at) / RFU NR4A2 (11747474_a_at) / Fold change /veh NR4A2 (11747474_a_at) / RFU ABCC12 (11746883_a_at) / Fold change /veh ABCC12 (11746883_a_at) / RFU TMEM136 (11760407_x_at) / Fold change /veh TMEM136 (11760407_x_at) / RFU CLDN22 /// WWC2 (11732394_at) / Fold change /veh CLDN22 /// WWC2 (11732394_at) / RFU HLA-DPB1 (11760878_x_at) / Fold change /veh HLA-DPB1 (11760878_x_at) / RFU SPINT1 (11716480_a_at) / Fold change /veh SPINT1 (11716480_a_at) / RFU GAP43 (11754022_s_at) / Fold change /veh GAP43 (11754022_s_at) / RFU A4GNT (11735810_at) / Fold change /veh A4GNT (11735810_at) / RFU PRB3 (11715151_x_at) / Fold change /veh PRB3 (11715151_x_at) / RFU TUBB4B (11761932_at) / Fold change /veh TUBB4B (11761932_at) / RFU CAPN14 (11732068_a_at) / Fold change /veh CAPN14 (11732068_a_at) / RFU TMCC2 (11721928_a_at) / Fold change /veh TMCC2 (11721928_a_at) / RFU IRGQ (11745062_a_at) / Fold change /veh IRGQ (11745062_a_at) / RFU FAM174B (11720279_a_at) / Fold change /veh FAM174B (11720279_a_at) / RFU TMPRSS4 (11748680_a_at) / Fold change /veh TMPRSS4 (11748680_a_at) / RFU FAM212B (11763350_a_at) / Fold change /veh FAM212B (11763350_a_at) / RFU PLEKHG5 (11743358_a_at) / Fold change /veh PLEKHG5 (11743358_a_at) / RFU ZSCAN30 (11745921_a_at) / Fold change /veh ZSCAN30 (11745921_a_at) / RFU CMKLR1 (11741424_a_at) / Fold change /veh CMKLR1 (11741424_a_at) / RFU LOC101060620 /// MAPK8IP1 (11723275_at) / Fold change /veh LOC101060620 /// MAPK8IP1 (11723275_at) / RFU SPTSSB (11747773_x_at) / Fold change /veh SPTSSB (11747773_x_at) / RFU PRSS12 (11739890_at) / Fold change /veh PRSS12 (11739890_at) / RFU BIN1 (11741810_x_at) / Fold change /veh BIN1 (11741810_x_at) / RFU WNT11 (11732464_a_at) / Fold change /veh WNT11 (11732464_a_at) / RFU C10orf10 (11716521_a_at) / Fold change /veh C10orf10 (11716521_a_at) / RFU C5orf56 (11738089_at) / Fold change /veh C5orf56 (11738089_at) / RFU CYB561 (11721691_x_at) / Fold change /veh CYB561 (11721691_x_at) / RFU ANKRD19P (11752326_a_at) / Fold change /veh ANKRD19P (11752326_a_at) / RFU OR2T12 /// OR2T33 /// OR2T8 (11738714_s_at) / Fold change /veh OR2T12 /// OR2T33 /// OR2T8 (11738714_s_at) / RFU VCAN (11748164_a_at) / Fold change /veh VCAN (11748164_a_at) / RFU JSRP1 (11732532_at) / Fold change /veh JSRP1 (11732532_at) / RFU KRTAP10-11 (11738290_x_at) / Fold change /veh KRTAP10-11 (11738290_x_at) / RFU MYO3A (11730013_a_at) / Fold change /veh MYO3A (11730013_a_at) / RFU EBF3 (11725865_a_at) / Fold change /veh EBF3 (11725865_a_at) / RFU CAMK2N1 (11719241_x_at) / Fold change /veh CAMK2N1 (11719241_x_at) / RFU C5orf56 (11738088_a_at) / Fold change /veh C5orf56 (11738088_a_at) / RFU OLFML3 (11715873_a_at) / Fold change /veh OLFML3 (11715873_a_at) / RFU LOC100653217 /// NTM (11731650_a_at) / Fold change /veh LOC100653217 /// NTM (11731650_a_at) / RFU MAPK11 (11762145_a_at) / Fold change /veh MAPK11 (11762145_a_at) / RFU FIZ1 (11724087_x_at) / Fold change /veh FIZ1 (11724087_x_at) / RFU OASL (11726364_x_at) / Fold change /veh OASL (11726364_x_at) / RFU SOX15 (11748057_x_at) / Fold change /veh SOX15 (11748057_x_at) / RFU CD79A (11719716_a_at) / Fold change /veh CD79A (11719716_a_at) / RFU HIST1H1D (11736915_at) / Fold change /veh HIST1H1D (11736915_at) / RFU CASKIN2 (11723855_a_at) / Fold change /veh CASKIN2 (11723855_a_at) / RFU LOC730098 (11760151_x_at) / Fold change /veh LOC730098 (11760151_x_at) / RFU OR4N2 (11742367_at) / Fold change /veh OR4N2 (11742367_at) / RFU PRRT2 (11749266_a_at) / Fold change /veh PRRT2 (11749266_a_at) / RFU SNX32 (11753110_a_at) / Fold change /veh SNX32 (11753110_a_at) / RFU CDHR5 (11726645_a_at) / Fold change /veh CDHR5 (11726645_a_at) / RFU RCAN1 (11760418_a_at) / Fold change /veh RCAN1 (11760418_a_at) / RFU FAM167A (11723789_a_at) / Fold change /veh FAM167A (11723789_a_at) / RFU FAM26E (11764081_at) / Fold change /veh FAM26E (11764081_at) / RFU ISYNA1 (11749810_s_at) / Fold change /veh ISYNA1 (11749810_s_at) / RFU ACY1 (11761880_at) / Fold change /veh ACY1 (11761880_at) / RFU 11764098_at / Fold change /veh 11764098_at / RFU SAMD14 (11745864_x_at) / Fold change /veh SAMD14 (11745864_x_at) / RFU NPB (11741838_a_at) / Fold change /veh NPB (11741838_a_at) / RFU TMPRSS6 (11731388_a_at) / Fold change /veh TMPRSS6 (11731388_a_at) / RFU KRTAP10-2 (11738614_at) / Fold change /veh KRTAP10-2 (11738614_at) / RFU ARHGAP8 /// PRR5-ARHGAP8 (11727945_x_at) / Fold change /veh ARHGAP8 /// PRR5-ARHGAP8 (11727945_x_at) / RFU KRTAP5-7 /// NADSYN1 (11734609_at) / Fold change /veh KRTAP5-7 /// NADSYN1 (11734609_at) / RFU RASL12 (11751679_a_at) / Fold change /veh RASL12 (11751679_a_at) / RFU CDKN2B (11736163_a_at) / Fold change /veh CDKN2B (11736163_a_at) / RFU PRF1 (11729649_at) / Fold change /veh PRF1 (11729649_at) / RFU, ZNF638 /// ZNF638-IT1 / Fold change vs veh, ZNF638 /// ZNF638-IT1 / RFU, PANK3 / Fold change vs veh, PANK3 / RFU, SH3YL1 / Fold change vs veh, SH3YL1 / RFU, ZEB2 / Fold change vs veh, ZEB2 / RFU, NRIP1 / Fold change vs veh, NRIP1 / RFU, PTTG1IP / Fold change vs veh, PTTG1IP / RFU, CAPN2 / Fold change vs veh, CAPN2 / RFU, MED14 / Fold change vs veh, MED14 / RFU, SNORA58 / Fold change vs veh, SNORA58 / RFU, C1orf63 / Fold change vs veh, C1orf63 / RFU, LRRFIP1 / Fold change vs veh, LRRFIP1 / RFU, NDUFAF7 / Fold change vs veh, NDUFAF7 / RFU, SLC12A2 / Fold change vs veh, SLC12A2 / RFU, IBTK / Fold change vs veh, IBTK / RFU, ESF1 / Fold change vs veh, ESF1 / Fold change vs veh, TMEM50B / RFU, TAOK1 / Fold change vs veh, TAOK1 / RFU, ACBD3 / Fold change vs veh, ACBD3 / RFU, TMA16 / Fold change vs veh, TMA16 / RFU, RWDD3 / Fold change vs veh, RWDD3 / RFU, BCAT1 / Fold change vs veh, BCAT1 / RFU, EDEM3 / Fold change vs veh, EDEM3 / RFU, TMEM33 / Fold change vs veh, TMEM33 / RFU, WDR75 / Fold change vs veh, WDR75 / RFU, AHCTF1 / Fold change vs veh, AHCTF1 / RFU, TFRC / Fold change vs veh, TFRC / RFU, ZDHHC17 / Fold change vs veh, ZDHHC17 / RFU, NOM1 / Fold change vs veh, NOM1 / RFU, ARL8B / Fold change vs veh, ARL8B / RFU, ZBTB11 / Fold change vs veh, ZBTB11 / RFU, TAMM41 / Fold change vs veh, TAMM41 / RFU, KIAA1704 /// LOC100996395 / Fold change vs veh, KIAA1704 /// LOC100996395 / RFU, ING1 / Fold change vs veh, ING1 / RFU, TRMT61B / Fold change vs veh, TRMT61B / RFU, FUBP3 / Fold change vs veh, FUBP3 / RFU, TP53 / Fold change vs veh, TP53 / RFU, TNKS2 / Fold change vs veh, TNKS2 / RFU, ZFP14 / Fold change vs veh, ZFP14 / RFU, ACTR2 / Fold change vs veh, ACTR2 / RFU, PPP3R1 / Fold change vs veh, PPP3R1 / RFU, PIK3R1 / Fold change vs veh, PIK3R1 / RFU, HNRNPA1 / Fold change vs veh, HNRNPA1 / RFU, RNF170 / Fold change vs veh, RNF170 / RFU, ZNF28 / Fold change vs veh, ZNF28 / RFU, RNGTT / Fold change vs veh, RNGTT / RFU, OGT / Fold change vs veh, OGT / RFU, BRD1 / Fold change vs veh, BRD1 / RFU, MARS / Fold change vs veh, MARS / RFU, ZNF655 / Fold change vs veh, ZNF655 / RFU, FAHD1 / Fold change vs veh, FAHD1 / RFU, BDP1 / Fold change vs veh, BDP1 / RFU, LRRCC1 / Fold change vs veh, LRRCC1 / RFU, ARID1A / Fold change vs veh, ARID1A / RFU, ZNF146 / Fold change vs veh, ZNF146 / RFU, ZNF330 / Fold change vs veh, ZNF330 / RFU, GPN3 / Fold change vs veh, GPN3 / RFU, C9orf123 / Fold change vs veh, C9orf123 / RFU, N4BP2L2 / Fold change vs veh, N4BP2L2 / RFU, ARFIP1 / Fold change vs veh, ARFIP1 / RFU, FAM179B / Fold change vs veh, FAM179B / RFU, BCL10 / Fold change vs veh, BCL10 / RFU, UHRF1BP1L / Fold change vs veh, UHRF1BP1L / RFU, BET1 / Fold change vs veh, BET1 / RFU, CNOT2 / Fold change vs veh, CNOT2 / RFU, ZNF268 / Fold change vs veh, ZNF268 / Fold change vs veh, ZNF507 / RFU, DGCR2 / Fold change vs veh, DGCR2 / RFU, WDSUB1 / Fold change vs veh, WDSUB1 / Fold change vs veh, HSP90B1 /// MIR3652 / RFU, ADSS / Fold change vs veh, ADSS / RFU, GK / Fold change vs veh, GK / RFU, ZNF148 / Fold change vs veh, ZNF148 / RFU, TAF9 / Fold change vs veh, TAF9 / RFU, SLC1A5 / Fold change vs veh, SLC1A5 / RFU, SLMO2 / Fold change vs veh, SLMO2 / RFU, ABCC4 / Fold change vs veh, ABCC4 / RFU, LOC101060439 /// RAP1B / Fold change vs veh, LOC101060439 /// RAP1B / RFU, RFX7 / Fold change vs veh, RFX7 / RFU, GTPBP10 / Fold change vs veh, GTPBP10 / RFU, CNEP1R1 / Fold change vs veh, CNEP1R1 / RFU, BIVM-ERCC5 /// ERCC5 / Fold change vs veh, BIVM-ERCC5 /// ERCC5 / RFU, ILF3 / Fold change vs veh, ILF3 / RFU 11762660_at / Fold change /veh 11762660_at / RFU VCAN (11757783_s_at) / Fold change /veh VCAN (11757783_s_at) / RFU DDX43 (11728927_at) / Fold change /veh DDX43 (11728927_at) / RFU KRT8 (11758188_x_at) / Fold change /veh KRT8 (11758188_x_at) / RFU NKD1 (11759106_at) / Fold change /veh NKD1 (11759106_at) / RFU SRD5A1 (11742802_a_at) / Fold change /veh SRD5A1 (11742802_a_at) / RFU TPSAB1 /// TPSB2 (11721975_s_at) / Fold change /veh TPSAB1 /// TPSB2 (11721975_s_at) / RFU GSTM3 (11746129_a_at) / Fold change /veh GSTM3 (11746129_a_at) / RFU IL23R (11737362_x_at) / Fold change /veh IL23R (11737362_x_at) / RFU TMEM51 (11727254_a_at) / Fold change /veh TMEM51 (11727254_a_at) / RFU PIWIL2 (11732686_x_at) / Fold change /veh PIWIL2 (11732686_x_at) / RFU ORM1 (11744905_x_at) / Fold change /veh ORM1 (11744905_x_at) / RFU CCDC152 (11743942_at) / Fold change /veh CCDC152 (11743942_at) / RFU ECM1 (11717891_a_at) / Fold change /veh ECM1 (11717891_a_at) / RFU IL23R (11748794_a_at) / Fold change /veh IL23R (11748794_a_at) / RFU TNFAIP8L3 (11732012_x_at) / Fold change /veh TNFAIP8L3 (11732012_x_at) / RFU MBOAT4 (11741988_at) / Fold change /veh MBOAT4 (11741988_at) / RFU 11764193_at / Fold change /veh 11764193_at / RFU TMEM53 (11763286_at) / Fold change /veh TMEM53 (11763286_at) / RFU MAGEB2 (11727129_at) / Fold change /veh MAGEB2 (11727129_at) / RFU TMEM200A (11744735_a_at) / Fold change /veh TMEM200A (11744735_a_at) / RFU CCDC152 (11751479_a_at) / Fold change /veh CCDC152 (11751479_a_at) / RFU FAM211A (11726209_a_at) / Fold change /veh FAM211A (11726209_a_at) / RFU RGS16 (11746705_a_at) / Fold change /veh RGS16 (11746705_a_at) / RFU VCAN (11755009_s_at) / Fold change /veh VCAN (11755009_s_at) / RFU RHOB (11743442_s_at) / Fold change /veh RHOB (11743442_s_at) / RFU RGS16 (11720943_a_at) / Fold change /veh RGS16 (11720943_a_at) / RFU RGS16 (11720944_at) / Fold change /veh RGS16 (11720944_at) / RFU, VPS4B / Fold change vs veh, VPS4B / RFU, CREB1 / Fold change vs veh, CREB1 / RFU, DNAJC13 / Fold change vs veh, DNAJC13 / RFU, GNAQ / Fold change vs veh, GNAQ / RFU, CDK5R1 / Fold change vs veh, CDK5R1 / RFU, ZRANB3 / Fold change vs veh, ZRANB3 / RFU, CUL4A / Fold change vs veh, CUL4A / RFU, CCNY / Fold change vs veh, CCNY / RFU, UFL1 / Fold change vs veh, UFL1 / RFU, COG3 / Fold change vs veh, COG3 / RFU, DIAPH2 / Fold change vs veh, DIAPH2 / RFU, SKA2 / Fold change vs veh, SKA2 / RFU, AFF3 / Fold change vs veh, AFF3 / RFU, LMF1 / Fold change vs veh, LMF1 / RFU, IPO11 / Fold change vs veh, IPO11 / RFU, DFFB / Fold change vs veh, DFFB / RFU, FOXP1 / Fold change vs veh, FOXP1 / RFU, CARD8 / Fold change vs veh, CARD8 / RFU, STRN3 / Fold change vs veh, STRN3 / RFU, ADK / Fold change vs veh, ADK / RFU, RASSF2 / Fold change vs veh, RASSF2 / RFU, WIPF1 / Fold change vs veh, WIPF1 / RFU, LARP1B / Fold change vs veh, LARP1B / RFU, RASA1 / Fold change vs veh, RASA1 / RFU, RB1 / Fold change vs veh, RB1 / RFU, PPFIA1 / Fold change vs veh, PPFIA1 / RFU, MAT2A / Fold change vs veh, MAT2A / RFU, CCT5 / Fold change vs veh, CCT5 / RFU, WDR92 / Fold change vs veh, WDR92 / RFU, CUX1 / Fold change vs veh, CUX1 / RFU, TTC7A / Fold change vs veh, TTC7A / RFU, TMEM135 / Fold change vs veh, TMEM135 / RFU, DEPTOR / Fold change vs veh, DEPTOR / RFU, CPM / Fold change vs veh, CPM / RFU, DNAJB6 / Fold change vs veh, DNAJB6 / RFU, CACNA2D3 / Fold change vs veh, CACNA2D3 / RFU, DTX4 / Fold change vs veh, DTX4 / RFU, TFCP2 / Fold change vs veh, TFCP2 / RFU, GMCL1 /// GMCL1P1 / Fold change vs veh, GMCL1 /// GMCL1P1 / RFU, AEBP2 / Fold change vs veh, AEBP2 / RFU, SNHG1 /// SNORD22 /// SNORD25 /// SNORD26 /// SNORD27 /// SNORD28 /// SNORD29 /// SNORD31 / Fold change vs veh, SNHG1 /// SNORD22 /// SNORD25 /// SNORD26 /// SNORD27 /// SNORD28 /// SNORD29 /// SNORD31 / Fold change (Aza/veh), C12orf56 (ProbeSet 11735607_a_at) / Fold change (ACY-1035/veh), C12orf56 (ProbeSet 11735607_a_at) / Fold change (Aza/veh), FGFR1OP (ProbeSet 11751329_s_at) / Fold change (ACY-1035/veh), FGFR1OP (ProbeSet 11751329_s_at) / Fold change (Aza/veh), VPS36 (ProbeSet 11739960_a_at) / Fold change (ACY-1035/veh), VPS36 (ProbeSet 11739960_a_at) / RFU SYPL1 (11715823_x_at) / Fold change /veh SYPL1 (11715823_x_at) / RFU IGFBP7 (11715501_s_at) / Fold change /veh IGFBP7 (11715501_s_at) / RFU REEP3 (11722064_at) / Fold change /veh REEP3 (11722064_at) / RFU IGLL1 (11728026_x_at) / Fold change /veh IGLL1 (11728026_x_at): dose or concentration left out as unconfirmed",
  "conditions": "ProbeSet 11717308_a_at; LIST B",
  "data": [
    {"smiles": "Nc1ccc(-c2cccs2)cc1NC(=O)c1ccc2c(c1)cc(C1CC1)n2CCN1CCOCC1", "note": "[ACY-1035]", "values": [
      {"measurement": "Fold change vs veh, WDR75", "value": 0.92}
    ]}
  ]
}
